Measurements taken from ChEMBL document CHEMBL2413072, “Synthesis and in vitro anticancer studies of novel C-2 arylidene congeners of lantadenes” (2013).

Key:
Format in all cases: functional
CAKI-1 [1] = assay: Growth inhibition of human CAKI-1 cells assessed as growth inhibition at 10 uM by sulforhodamine B assay; conditions: read-out: GI
A498 = assay: Growth inhibition of human A498 cells assessed as growth inhibition at 10 uM by sulforhodamine B assay; conditions: read-out: GI
SK-OV-3 [2] = assay: Growth inhibition of human SKOV3 cells assessed as growth inhibition at 10 uM by sulforhodamine B assay; conditions: read-out: GI
OVCAR-8 [3] = assay: Growth inhibition of human OVCAR8 cells assessed as growth inhibition at 10 uM by sulforhodamine B assay; conditions: read-out: GI
OVCAR-4 = assay: Growth inhibition of human OVCAR4 cells assessed as growth inhibition at 10 uM by sulforhodamine B assay; conditions: read-out: GI
UACC-257 = assay: Growth inhibition of human UACC257 cells assessed as growth inhibition at 10 uM by sulforhodamine B assay; conditions: read-out: GI
SNB-75 [4] = assay: Growth inhibition of human SNB75 cells assessed as growth inhibition at 10 uM by sulforhodamine B assay; conditions: read-out: GI
HT-29 = assay: Growth inhibition of human HT-29 cells assessed as growth inhibition at 10 uM by sulforhodamine B assay; conditions: read-out: GI
NCI-H23 = assay: Growth inhibition of human NCI-H23 cells assessed as growth inhibition at 10 uM by sulforhodamine B assay; conditions: read-out: GI
HOP-62 [5] = assay: Growth inhibition of human HOP62 cells assessed as growth inhibition at 10 uM by sulforhodamine B assay; conditions: read-out: GI
SR = assay: Growth inhibition of human SR cells assessed as growth inhibition at 10 uM by sulforhodamine B assay; conditions: read-out: GI
[6] = Growth inhibition of human Hs 578T cells assessed as cell growth at 10 uM by sulforhodamine B assay; conditions: read-out: Activity
TK-10 = assay: Growth inhibition of human TK10 cells assessed as cell growth at 10 uM by sulforhodamine B assay; conditions: read-out: Activity
SN12C = assay: Growth inhibition of human SN12C cells assessed as cell growth at 10 uM by sulforhodamine B assay; conditions: read-out: Activity
CAKI-1 [7] = assay: Growth inhibition of human CAKI-1 cells assessed as cell growth at 10 uM by sulforhodamine B assay; conditions: read-out: Activity
SK-OV-3 [8] = assay: Growth inhibition of human SKOV3 cells assessed as cell growth at 10 uM by sulforhodamine B assay; conditions: read-out: Activity
[9] = Growth inhibition of human NCI-ADR-RES cells assessed as cell growth at 10 uM by sulforhodamine B assay; conditions: read-out: Activity
OVCAR-8 [10] = assay: Growth inhibition of human OVCAR8 cells assessed as cell growth at 10 uM by sulforhodamine B assay; conditions: read-out: Activity
SNB-75 [11] = assay: Growth inhibition of human SNB75 cells assessed as cell growth at 10 uM by sulforhodamine B assay; conditions: read-out: Activity
HCT-116 = assay: Growth inhibition of human HCT116 cells assessed as cell growth at 10 uM by sulforhodamine B assay; conditions: read-out: Activity
NCI-H522 = assay: Growth inhibition of human NCI-H522 cells assessed as cell growth at 10 uM by sulforhodamine B assay; conditions: read-out: Activity
HOP-62 [12] = assay: Growth inhibition of human HOP62 cells assessed as cell growth at 10 uM by sulforhodamine B assay; conditions: read-out: Activity

CC1(C)C[C@@H](O)[C@]2(C(=O)O)CC[C@]3(C)C(=CC[C@@H]4[C@@]5(C)CCC(=O)C(C)(C)[C@@H]5CC[C@]43C)[C@@H]2C1
inhibition of growth at 10 µM (CAKI-1 [1]): 15.2% | inhibition of growth at 10 µM (A498): < 10% | inhibition of growth at 10 µM (SK-OV-3 [2]): < 10% | inhibition of growth at 10 µM (OVCAR-8 [3]): 19.2% | inhibition of growth at 10 µM (OVCAR-4): 14.1% | inhibition of growth at 10 µM (UACC-257): < 10% | inhibition of growth at 10 µM (SNB-75 [4]): < 10% | inhibition of growth at 10 µM (HT-29): 16.8% | inhibition of growth at 10 µM (NCI-H23): < 10% | inhibition of growth at 10 µM (HOP-62 [5]): 11.3% | inhibition of growth at 10 µM (SR): 16.3% | growth at 10 µM [6]: 99.3% | growth at 10 µM (TK-10): 106% | growth at 10 µM (SN12C): 83.3% | growth at 10 µM (CAKI-1 [7]): 84.8% | growth at 10 µM (SK-OV-3 [8]): 102% | growth at 10 µM [9]: 100% | growth at 10 µM (OVCAR-8 [10]): 80.8% | growth at 10 µM (SNB-75 [11]): 101% | growth at 10 µM (HCT-116): 78.8% | growth at 10 µM (NCI-H522): 80.9% | growth at 10 µM (HOP-62 [12]): 88.7%

CC1(C)C[C@@H](O)[C@]2(C(=O)O)CC[C@]3(C)C(=CC[C@@H]4[C@@]5(C)CC[C@H](O)C(C)(C)[C@@H]5CC[C@]43C)[C@@H]2C1
inhibition of growth at 10 µM (CAKI-1 [1]): 15.2% | inhibition of growth at 10 µM (A498): < 10% | inhibition of growth at 10 µM (SK-OV-3 [2]): < 10% | inhibition of growth at 10 µM (OVCAR-8 [3]): < 10% | inhibition of growth at 10 µM (OVCAR-4): < 10% | inhibition of growth at 10 µM (UACC-257): < 10% | inhibition of growth at 10 µM (SNB-75 [4]): < 10% | inhibition of growth at 10 µM (HT-29): < 10% | inhibition of growth at 10 µM (NCI-H23): < 10% | inhibition of growth at 10 µM (HOP-62 [5]): < 10% | inhibition of growth at 10 µM (SR): 22% | growth at 10 µM [6]: 102% | growth at 10 µM (TK-10): 99.7% | growth at 10 µM (SN12C): 89.5% | growth at 10 µM (CAKI-1 [7]): 91.8% | growth at 10 µM (SK-OV-3 [8]): 101% | growth at 10 µM [9]: 104% | growth at 10 µM (OVCAR-8 [10]): 93.7% | growth at 10 µM (SNB-75 [11]): 97.7% | growth at 10 µM (HCT-116): 82.7% | growth at 10 µM (NCI-H522): 95.3% | growth at 10 µM (HOP-62 [12]): 98.9%

COc1cc(/C=C2\C[C@]3(C)[C@H]4CC=C5[C@@H]6CC(C)(C)C[C@@H](O)[C@]6(C(=O)O)CC[C@@]5(C)[C@]4(C)CC[C@H]3C(C)(C)C2=O)ccc1O
inhibition of growth at 10 µM (CAKI-1 [1]): 21.2% | inhibition of growth at 10 µM (A498): < 10% | inhibition of growth at 10 µM (SK-OV-3 [2]): < 10% | inhibition of growth at 10 µM (OVCAR-8 [3]): 20.2% | inhibition of growth at 10 µM (OVCAR-4): 16.2% | inhibition of growth at 10 µM (UACC-257): < 10% | inhibition of growth at 10 µM (SNB-75 [4]): 17.9% | inhibition of growth at 10 µM (HT-29): 14.5% | inhibition of growth at 10 µM (NCI-H23): 15% | inhibition of growth at 10 µM (HOP-62 [5]): < 10% | inhibition of growth at 10 µM (SR): 12.9% | growth at 10 µM [6]: 94% | growth at 10 µM (TK-10): 116% | growth at 10 µM (SN12C): 87.5% | growth at 10 µM (CAKI-1 [7]): 78.8% | growth at 10 µM (SK-OV-3 [8]): 99.2% | growth at 10 µM [9]: 92.7% | growth at 10 µM (OVCAR-8 [10]): 79.8% | growth at 10 µM (SNB-75 [11]): 82.1% | growth at 10 µM (HCT-116): 84.8% | growth at 10 µM (NCI-H522): 80.8% | growth at 10 µM (HOP-62 [12]): 96.9%
